In patent US6274715A, “Tricyclic erythromycin derivatives” (priority 1997, dated 2001):
Values after ≈ are worked out from the molar mass of the structure shown.

Legend:
Format in all cases: cell-based
[1] = system: STAPHYLOCOCCUS AUREUS ATCC 6538P; test: In vitro antibacterial activity, MIC, BHI agar dilution; conditions: S. aureus ATCC 6538P, 35-37° C., 20 to 24 hours, unit assumed
[2] = system: STREPTOCOCCUS PYOGENES PIU 2548; test: as above; conditions: S. pyogenes PIU 2548, unit assumed
[3] = system: PSEUDOMONAS AERUGINOSA BMH10; test: as above; conditions: P. aeruginosa BMH10, unit assumed
[4] = system: STAPHYLOCOCCUS AUREUS CMX 553; test: as above; conditions: S. aureus CMX 553, unit assumed
[5] = system: STAPHYLOCOCCUS AUREUS A-5278; test: as above; conditions: S. aureus A-5278, unit assumed
[6] = system: PSEUDOMONAS AERUGINOSA K799/WT; test: as above; conditions: P. aeruginosa K799/WT, unit assumed
[7] = system: PSEUDOMONAS AERUGINOSA K799/61; test: as above; conditions: P. aeruginosa K799/61, unit assumed
ESCHERICHIA COLI H560 = test: as above; conditions: E. coli H560, unit assumed
[8] = system: ENTEROBACTER AEROGENES ATCC 13048; test: as above; conditions: E. aerogenes ATCC 13048, unit assumed
[9] = system: STAPHYLOCOCCUS AUREUS 1775; test: as above; conditions: S. aureus 1775, unit assumed
ESCHERICHIA COLI DC-2 = test: as above; conditions: E. coli DC-2, unit assumed
ESCHERICHIA COLI KNK 437 = conditions: E. coli KNK 437; BHI agar; unit assumed
[10] = system: MYCOBACTERIUM SMEGMATIS ATCC 114; test: In vitro antibacterial activity, MIC, BHI agar dilution; conditions: M. smegmatis ATCC 114, unit assumed
[11] = system: PROVIDENCIA STUARTII CMX 640; conditions: P. stuartii CMX 640; BHI agar; unit assumed
[12] = system: STAPHYLOCOCCUS AUREUS CMX 642A; test: In vitro antibacterial activity, MIC, BHI agar dilution; conditions: S. aureus CMX 642A, unit assumed
PSEUDOMONAS CEPACIA 296I = test: as above; conditions: P. cepacia 296I, unit assumed
[13] = system: ACINETOBACTER CALCOACETICUS CMX 669; test: as above; conditions: A. calcoaceticus CMX 669, unit assumed
CANDIDA ALBICANS CCH 442 = test: as above; conditions: C. albicans CCH 442, unit assumed
[14] = system: STREPTOCOCCUS BOVIS A-5169; test: as above; conditions: S. bovis A-5169, unit assumed
[15] = system: STAPHYLOCOCCUS AUREUS A5177; test: as above; conditions: S. aureus A5177, unit assumed
M[…] ATCC 9341 = test: as above; conditions: M. luteus ATCC 9341, unit assumed
In short: (§1)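 BHI agar dilution, 12 plates; inoculum 1:100 (1:10 slow-growing strains), Steers replicator; 35-37° C, 20-24 h. MIC = lowest conc. with no growth/slight haze/sparse colonies vs growth control, visual read. Erythromycin A reference plate.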

STR[…] 508 = test: as above; conditions: S. agalactiae CMX 508, unit assumed
In short: as §1

M[…] ATCC 4698 = test: as above; conditions: M. luteus ATCC 4698, unit assumed
In short: as §1

EN[…] ATCC 8043 = test: as above; conditions: E. faecium ATCC 8043, unit assumed
In short: as §1

[16] = system: STREPTOCOCCUS PYOGENES EES61; test: as above; conditions: S. pyogenes EES61, unit assumed
[17] = system: KLEBSIELLA PNEUMONIAE ATCC 8045; test: as above; conditions: K. pneumoniae ATCC 8045, unit assumed
[18] = system: PSEUDOMONAS AERUGINOSA DPHD-2862; test: as above; conditions: P. aeruginosa DPHD-2862, unit assumed
[19] = system: PSEUDOMONAS AERUGINOSA 5007; test: as above; conditions: P. aeruginosa 5007, unit assumed
[20] = system: STAPHYLOCOCCUS EPIDERMIDIS 3519; conditions: S. epidermidis 3519; BHI agar; unit assumed
ESCHERICHIA COLI SS = test: In vitro antibacterial activity, MIC, BHI agar dilution; conditions: E. coli SS, unit assumed
[21] = system: STAPHYLOCOCCUS AUREUS NCTC10649M; test: as above; conditions: S. aureus NCTC10649M, unit assumed
[22] = system: STREPTOCOCCUS PYOGENES 930; test: as above; conditions: S. pyogenes 930, unit assumed
H. Influenza Dill AMP R = test: In vitro antibacterial activity against H. Influenza Dill AMP R, MIC; conditions: separate assay, unit assumed
Description: Representative compounds of the present invention were assayed in vitro for antibacterial activity as follows: Twelve petri dishes containing successive aqueous dilutions of the test compound mixed with 10 mL of sterilized Brain Heart Infusion (BHI) agar (Difco 0418-01-5) were prepared. Each plate was inoculated with 1:100 (or 1:10 for slow-growing strains, such as Micrococcus and Streptococcus) dilutions of up to 32 different microorganisms, using a Steers replicator block. The inoculated plates were incubated at 35-37° C. for 20 to 24 hours. In addition, a control plate, using BHI agar containing no test compound, was prepared and incubated at the beginning and end of each test.
After incubation, each plate was visually inspected. The minimum inhibitory concentration (MIC) was defmed as the lowest concentration of drug yielding no growth, a slight haze, or sparsely isolated colonies on the inoculum spot as compared to the growth control.
In a separate assay representative compounds of the invention were assayed in vitro for antibacterial activity against the H. Influenza Dill AMP R strain, according to the protocol described above.

[23] = system: PSEUDOMONAS AERUGINOSA DPHD-5263; test: In vitro antibacterial activity, MIC, BHI agar dilution; conditions: P. aeruginosa DPHD-5263, unit assumed
ESCHERICHIA COLI JUHL = conditions: E. coli JUHL; BHI agar; unit assumed

| SMILES | MIC [1] [µg/mL] | MIC [2] [µg/mL] | MIC [3] [µg/mL] | MIC [4] [µg/mL] | MIC [5] [µg/mL] | MIC [7] [µg/mL] | MIC (ESCHERICHIA COLI H560) [µg/mL] | MIC [9] [µg/mL] | MIC (ESCHERICHIA COLI DC-2) [µg/mL] | MIC (ESCHERICHIA COLI KNK 437) [µg/mL] | MIC [10] [µg/mL] | MIC [11] [µg/mL] | MIC [12] [µg/mL] | MIC (PSEUDOMONAS CEPACIA 296I) [µg/mL] | MIC (CANDIDA ALBICANS CCH 442) [µg/mL] | MIC [14] [µg/mL] | MIC [15] [µg/mL] | MIC (M[…] ATCC 9341) [µg/mL] | MIC (STR[…] 508) [µg/mL] | MIC (M[…] ATCC 4698) [µg/mL] | further results |
| --- | --- | --- | --- | --- | --- | --- | --- | --- | --- | --- | --- | --- | --- | --- | --- | --- | --- | --- | --- | --- | --- |
| CC[C@H]1OC(=O)[C@H](C)C(=O)[C@H](C)[C@@H](O[C@@H]2O[C@H](C)C[C@H](N(C)C)[C@H]2O)[C@](C)(OC)C[C@@H](C)C2=N[C@@H]3COC[C@@H]3N3C(=O)O[C@@]1(C)[C@H]3[C@H]2C [Example 18] | 0.39 (≈ 0.574 µM) | 0.39 (≈ 0.574 µM) | > 100 | 0.78 (≈ 1.15 µM) | > 100 | 6.2 (≈ 9.12 µM) | > 100 | > 100 | > 100 | > 100 | 3.1 (≈ 4.56 µM) | > 100 | 0.78 (≈ 1.15 µM) | > 100 | > 100 | 0.05 (≈ 0.0735 µM) | 0.78 (≈ 1.15 µM) | 0.05 (≈ 0.0735 µM) | 0.05 (≈ 0.0735 µM) | 0.78 (≈ 1.15 µM) | MIC [6]: > 100 µg/mL; MIC [8]: > 100 µg/mL; MIC [13]: > 100 µg/mL; MIC (EN[…] ATCC 8043): 0.1 µg/mL (≈ 0.147 µM); MIC [16]: 0.05 µg/mL (≈ 0.0735 µM); MIC [17]: > 100 µg/mL; MIC [18]: > 100 µg/mL; MIC [19]: > 100 µg/mL; MIC [20]: 0.78 µg/mL (≈ 1.15 µM); MIC (ESCHERICHIA COLI SS): 0.78 µg/mL (≈ 1.15 µM); MIC [21]: 0.78 µg/mL (≈ 1.15 µM); MIC [22]: > 100 µg/mL; MIC (H. Influenza Dill AMP R): 8 µg/mL (≈ 11.8 µM); MIC [23]: > 100 µg/mL |
| CC[C@H]1OC(=O)[C@H](C)C(=O)[C@H](C)[C@@H](O[C@@H]2O[C@H](C)C[C@H](N(C)C)[C@H]2O)[C@](C)(OC)C[C@@H](C)C2=NC[C@H](COCc3ccccc3)N3C(=O)O[C@@]1(C)[C@H]3[C@H]2C [Example 41] | 0.05 (≈ 0.066 µM) | 0.2 (≈ 0.264 µM) | 50 (≈ 66 µM) | 0.05 (≈ 0.066 µM) | > 100 | 0.2 (≈ 0.264 µM) | 1.56 (≈ 2.06 µM) | > 100 | 3.1 (≈ 4.09 µM) | 6.2 (≈ 8.18 µM) | 0.2 (≈ 0.264 µM) | 50 (≈ 66 µM) | 0.05 (≈ 0.066 µM) | 12.5 (≈ 16.5 µM) | > 100 | ≤ 0.005 | 0.05 (≈ 0.066 µM) | 0.01 (≈ 0.0132 µM) | 0.02 (≈ 0.0264 µM) | 0.1 (≈ 0.132 µM) | MIC (ESCHERICHIA COLI JUHL): 6.2 µg/mL (≈ 8.18 µM); MIC (EN[…] ATCC 8043): 0.02 µg/mL (≈ 0.0264 µM); MIC [16]: 0.01 µg/mL (≈ 0.0132 µM); MIC [17]: 25 µg/mL (≈ 33 µM); MIC [18]: 50 µg/mL (≈ 66 µM); MIC [19]: 50 µg/mL (≈ 66 µM); MIC (ESCHERICHIA COLI SS): 0.2 µg/mL (≈ 0.264 µM); MIC [21]: 0.05 µg/mL (≈ 0.066 µM); MIC [22]: > 100 µg/mL; MIC (H. Influenza Dill AMP R): 2 µg/mL (≈ 2.64 µM); MIC [23]: 12.5 µg/mL (≈ 16.5 µM) |
